# Data: PubChem BioAssay AID1963848 (Molecular Pharmacology Branch, DTP, NCI, 2024)
# Several values for one entry are separate records, joined by “and”; a condition that tells them apart may be missing. Identical values can stand only once.
# Tested on: 379773-124-R-J2-PDC spheroid viability
# Assay: Anticancer human tumor 379773-124-R-J2-PDC patient-derived endometrial carcinoma cell line growth inhibition [POLQ]
# Settings: spheroids with HUVEC and MSC; for viability, T/C: stronger effect = lower value
# Experimental: Multicellular complex tumor spheroid response to Polymerase (POL) inhibitors (novobiocin, ART-558, RP6685) in combination with a variety of drugs and investigational agents in selected tumor cell lines
# The POL inhibitors (novobiocin, ART-558, and RP6685) were evaluated both individually and in combination with standard of care and investigational anticancer small molecules within a complex spheroid model of solid tumors. . Complex spheroids include a stromal component modeled by human endothelial cells (HUVEC) and fibroblasts modeled by human mesenchymal stem cells (MSCs). The concentration ranges selected for each drug and investigational agent were based upon clinically achievable concentrations if the clinical Cmax of the agent was known.
# Compounds. The drugs and investigational agents: novobiocin (NSC847541), ART-558 (NSC835418), RP-6685 (NSC848927), peposertib (NSC802822), ceralasertib (NSC780249), elimusertib (NSC800525), camonsertib (NSC841442), AZD-1390 (NSC803789), olaparib (NSC753686), talazoparib (NSC767125), rucaparib (NSC756644), sotorasib (NSC818433), MRTX-1133 (NSC836407), SN-38 (NSC673596), topotecan (NSC609699), epotoside (NSC141540), doxorubicin (NSC123127), gemcitabine (NSC613327), 5-fluorouracil (NSC19893), paclitaxel (NSC125973), vemurafenib (NSC761431), MSA-2 (NSC828583), SN-011 (NSC837082), adavosertib (NSC754352), prexasertib (NSC758257), carboplatin (NSC241240) and oxaliplatin (NSC266046), were obtained from the National Cancer Institute (NCI) Developmental Therapeutics Program Chemical Repository (21). The FDA-approved anticancer drug set is available from the Developmental Therapeutics Program at https://dtp.cancer.gov/organization/dscb/obtaining/. […] The stock solutions were prepared in dimethyl sulfoxide (DMSO, Sigma-Aldrich, St. Louis, MO, cat. D2650), except for the platinum compounds which were prepared in saline (Quality Biological, Gaithersburg, MD, cat. 114-055-101), at 800-fold the tested concentration and stored at -70 degrees C prior to their use. All drugs and investigational agents were tested over a range starting from a high concentration at or near the clinical Cmax and decreasing in half-log increments. If the clinical Cmax for an agent had not been determined, the highest concentration tested was 10 microM, except for SN-38, which was tested at a high concentration of 1 microM.
# Cell Culture. All cells were maintained in an incubator at 37 degrees C and 5% CO2 with 95% humidity. The PDC lines were cultured according to standard operating procedures established by the NCI PDMR (https://pdmr.cancer.gov). Table 3 of the manuscript, lists the cell lines along with the number of the three cell types plated to form the mct-spheroids and media for tumor cell growth. After thawing, all PDC lines, except 997537-175-T-J1-PDC and 415267-285-R-J2-PDC, were cultured in Matrigel-coated flasks prepared with a working solution of 1X Ham's F-12 nutrient mix, without supplementation (Thermo Fisher Scientific, cat. 11765054), 100 U/mL penicillin-streptomycin (Thermo Fisher Scientific, cat. 15140122), and 2.5% Matrigel (Corning Inc., Corning, NY, cat. 354248) for the first three passages. The two PDC lines 997537-175-T-J1-PDC and 415267-285-R-J2-PDC were cultured on uncoated flasks. The 857933-349-R-J2-PDC line was cultured in 6C/Colon 1B media containing advanced DMEM/F-12 (Thermo Fisher Scientific, cat. 12634028), 10 mM HEPES (Thermo Fisher Scientific, cat. 15630080), 1X GlutaMAX supplement (Thermo Fisher Scientific, cat. 35050061), 0.1 mg/mL primocin (InvivoGen, San Diego, CA, cat. ant-pm-2), 10% defined fetal bovine serum, heat inactivated (HyClone Laboratories Inc., Logan, UT, cat. SH30070.03HI), 50% L-WRN conditioned media (ATCC, cat. CRL-3276), 1.25 mM N-Acetyl-L-cysteine (Sigma-Aldrich, cat. A9165), 10 mM nicotinamide (Sigma-Aldrich, cat. N0636), 1X B-27 supplement (Thermo Fisher Scientific, cat. 17504044), 1X N-2 supplement (Thermo Fisher Scientific, cat. […]
# 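Further: spheroids exposed to drugs for seven days before readout.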
# 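Wherever viability, T/C is given: percent viability relative to DMSO vehicle control taken as 100%.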
smiles,measurement,setting,value
CC[C@@]1(O)C(=O)OCc2c1cc1n(c2=O)Cc2cc3c(CN(C)C)c(O)ccc3nc2-1 + COC1C(OC(N)=O)C(O)C(Oc2ccc3c(O)c(NC(=O)c4ccc(O)c(CC=C(C)C)c4)c(=O)oc3c2C)OC1(C)C,IC50,"curve of first compound, second compound 0.0316 µM",32.5 nM
same,IC50,"curve of first compound, second compound 0.1 µM",19.2 nM
same,IC50,"curve of first compound, second compound 0.316 µM",19 nM
same,IC50,"curve of first compound, second compound 1 µM",17 nM
same,IC50,"curve of first compound, second compound 3.16 µM",21.9 nM
same,IC50,"curve of first compound, second compound 10 µM",21 nM
same,"viability, T/C","second compound 0.0316 µM, first compound 0.000316 µM",86.5%
same,"viability, T/C","second compound 0.0316 µM, first compound 0.001 µM",79.3%
same,"viability, T/C","second compound 0.0316 µM, first compound 0.00316 µM",85.7%
same,"viability, T/C","second compound 0.0316 µM, first compound 0.01 µM",73.5%
same,"viability, T/C","second compound 0.0316 µM, first compound 0.0316 µM",51.2%
same,"viability, T/C","second compound 0.0316 µM, first compound 0.1 µM",10.9%
same,"viability, T/C","second compound 0.1 µM, first compound 0.000316 µM",73.3%
same,"viability, T/C","second compound 0.1 µM, first compound 0.001 µM",77.8%
same,"viability, T/C","second compound 0.1 µM, first compound 0.00316 µM",74.1%
same,"viability, T/C","second compound 0.1 µM, first compound 0.01 µM",71.2%
same,"viability, T/C","second compound 0.1 µM, first compound 0.0316 µM",33.9%
same,"viability, T/C","second compound 0.1 µM, first compound 0.1 µM",14.1%
same,"viability, T/C","second compound 0.316 µM, first compound 0.000316 µM",85.7%
same,"viability, T/C","second compound 0.316 µM, first compound 0.001 µM",78.6%
same,"viability, T/C","second compound 0.316 µM, first compound 0.00316 µM",78.2%
same,"viability, T/C","second compound 0.316 µM, first compound 0.01 µM",71.2%
same,"viability, T/C","second compound 0.316 µM, first compound 0.0316 µM",33.6%
same,"viability, T/C","second compound 0.316 µM, first compound 0.1 µM",12.1%
same,"viability, T/C","second compound 1 µM, first compound 0.000316 µM",86.4%
same,"viability, T/C","second compound 1 µM, first compound 0.001 µM",94.9%
same,"viability, T/C","second compound 1 µM, first compound 0.00316 µM",72.6%
same,"viability, T/C","second compound 1 µM, first compound 0.01 µM",68%
same,"viability, T/C","second compound 1 µM, first compound 0.0316 µM",32.2%
same,"viability, T/C","second compound 1 µM, first compound 0.1 µM",9.89%
same,"viability, T/C","second compound 3.16 µM, first compound 0.000316 µM",76.9%
same,"viability, T/C","second compound 3.16 µM, first compound 0.001 µM",71.5%
same,"viability, T/C","second compound 3.16 µM, first compound 0.00316 µM",83.1%
same,"viability, T/C","second compound 3.16 µM, first compound 0.01 µM",65%
same,"viability, T/C","second compound 3.16 µM, first compound 0.0316 µM",42.4%
same,"viability, T/C","second compound 3.16 µM, first compound 0.1 µM",11.6%
same,"viability, T/C","second compound 10 µM, first compound 0.000316 µM",72.9%
same,"viability, T/C","second compound 10 µM, first compound 0.001 µM",73.3%
same,"viability, T/C","second compound 10 µM, first compound 0.00316 µM",82.5%
same,"viability, T/C","second compound 10 µM, first compound 0.01 µM",69.6%
same,"viability, T/C","second compound 10 µM, first compound 0.0316 µM",38.8%
same,"viability, T/C","second compound 10 µM, first compound 0.1 µM",12.5%
C=CCn1c(=O)c2cnc(Nc3ccc(N4CCN(C)CC4)cc3)nc2n1-c1cccc(C(C)(C)O)n1,"viability, T/C",compound 0.00316 µM,95.2% and 88.4% and 90.7%
same,"viability, T/C",compound 0.01 µM,83.8% and 82.6% and 88.3%
same,"viability, T/C",compound 0.0316 µM,86.5% and 84.1% and 94.8%
same,"viability, T/C",compound 0.1 µM,91.2% and 98.4% and 89.9%
same,"viability, T/C",compound 0.316 µM,67.7% and 74.7% and 79.6%
same,"viability, T/C",compound 1 µM,2.93% and 2.98% and 6.11%
same,IC50,curve of compound,434 nM and 470 nM and 503 nM
